The OligoGym collection
Where “and” joins values, the source holds several entries; their conditions need not be identical. Identical values can stand only once. HELM strings list units from the 5' end as sugar, base in round brackets, then linkage (d deoxyribose, r ribose, m 2'-O-methyl, p phosphodiester). Methylation of C is not given here. [moe] = 2'-O-(2-methoxyethyl) (MOE); [cEt] = constrained ethyl (cEt); [sp] = phosphorothioate linkage

Target: HBV
Conditions: ASO

RNA1{[cEt](T)[sp].d(T)[sp].[cEt](T)[sp].d(A)[sp].[cEt](T)[sp].d(G)[sp].d(C)[sp].d(C)[sp].d(T)[sp].d(A)[sp].d(C)[sp].d(A)[sp].d(G)[sp].d(C)[sp].[moe](C)[sp].[moe](T)}$$$$V2.0
target mRNA inhibition (HepG2, 0.009375 µM): 12%
target mRNA inhibition (HepG2, 0.01875 µM): 14%
target mRNA inhibition (HepG2, 0.0375 µM): 32%
target mRNA inhibition (HepG2, 0.075 µM): 47%
target mRNA inhibition (HepG2, 0.15 µM): 62%
target mRNA inhibition (HepG2, 0.3 µM): 77%

RNA1{[moe](A)[sp].[cEt](A)[sp].[cEt](C)[sp].d(A)[sp].d(A)[sp].d(A)[sp].d(T)[sp].d(G)[sp].d(G)[sp].d(C)[sp].d(A)[sp].d(C)[sp].d(T)[sp].[cEt](A)[sp].[cEt](G)[sp].[moe](T)}$$$$V2.0
target mRNA inhibition (HepG2, 0.07 µM): 78% and 76%

RNA1{[moe](A)[sp].[cEt](A)[sp].[cEt](C)[sp].d(C)[sp].d(A)[sp].d(C)[sp].d(T)[sp].d(G)[sp].d(A)[sp].d(A)[sp].d(C)[sp].d(A)[sp].d(A)[sp].[cEt](A)[sp].[cEt](T)[sp].[moe](G)}$$$$V2.0
target mRNA inhibition (HepG2, 0.07 µM): 64% and 51%

RNA1{[moe](A)[sp].[cEt](A)[sp].[cEt](C)[sp].d(T)[sp].d(G)[sp].d(G)[sp].d(A)[sp].d(G)[sp].d(C)[sp].d(C)[sp].d(A)[sp].d(C)[sp].d(C)[sp].[cEt](A)[sp].[cEt](G)[sp].[moe](C)}$$$$V2.0
target mRNA inhibition (HepG2, 0.07 µM): 67% and 68%

RNA1{[moe](A)[sp].[cEt](A)[sp].[cEt](G)[sp].d(C)[sp].d(G)[sp].d(A)[sp].d(A)[sp].d(G)[sp].d(T)[sp].d(G)[sp].d(C)[sp].d(A)[sp].d(C)[sp].[cEt](A)[sp].[cEt](C)[sp].[moe](G)}$$$$V2.0
target mRNA inhibition (HepG2, 0.0092593 µM): 28%
target mRNA inhibition (HepG2, 0.0277778 µM): 57%
target mRNA inhibition (HepG2, 0.07 µM): 80% and 85%
target mRNA inhibition (HepG2, 0.0833333 µM): 80%
target mRNA inhibition (HepG2, 0.25 µM): 89%

RNA1{[moe](A)[sp].[cEt](A)[sp].d(G)[sp].d(C)[sp].d(G)[sp].d(A)[sp].d(A)[sp].d(G)[sp].d(T)[sp].d(G)[sp].d(C)[sp].d(A)[sp].[cEt](C)[sp].[moe](A)[sp].[cEt](C)[sp].[moe](G)}$$$$V2.0
target mRNA inhibition (HepG2, 0.0092593 µM): 20%
target mRNA inhibition (HepG2, 0.0277778 µM): 40%
target mRNA inhibition (HepG2, 0.07 µM): 82% and 75%
target mRNA inhibition (HepG2, 0.0833333 µM): 75%
target mRNA inhibition (HepG2, 0.25 µM): 89%

RNA1{[moe](A)[sp].[cEt](A)[sp].d(G)[sp].d(T)[sp].d(C)[sp].d(C)[sp].d(A)[sp].d(C)[sp].d(C)[sp].d(A)[sp].d(C)[sp].d(G)[sp].[cEt](A)[sp].[moe](G)[sp].[cEt](T)[sp].[moe](C)}$$$$V2.0
target mRNA inhibition (HepG2, 0.07 µM): 43% and 40%

RNA1{[moe](A)[sp].[cEt](A)[sp].d(T)[sp].d(T)[sp].d(T)[sp].d(A)[sp].d(T)[sp].d(G)[sp].d(C)[sp].d(C)[sp].d(T)[sp].d(A)[sp].[cEt](C)[sp].[moe](A)[sp].[cEt](G)[sp].[moe](C)}$$$$V2.0
target mRNA inhibition (HepG2, 0.07 µM): 60% and 59%

RNA1{[moe](A)[sp].[cEt](C)[sp].[cEt](T)[sp].d(A)[sp].d(G)[sp].d(T)[sp].d(A)[sp].d(A)[sp].d(A)[sp].d(C)[sp].d(T)[sp].d(G)[sp].d(A)[sp].[cEt](G)[sp].[cEt](C)[sp].[moe](C)}$$$$V2.0
target mRNA inhibition (HepG2, 0.0092593 µM): 24%
target mRNA inhibition (HepG2, 0.0277778 µM): 55%
target mRNA inhibition (HepG2, 0.07 µM): 77% and 85%
target mRNA inhibition (HepG2, 0.0833333 µM): 74%
target mRNA inhibition (HepG2, 0.25 µM): 88%

RNA1{[moe](A)[sp].[cEt](C)[sp].d(G)[sp].d(T)[sp].d(G)[sp].d(C)[sp].d(A)[sp].d(G)[sp].d(A)[sp].d(G)[sp].d(G)[sp].d(T)[sp].[cEt](G)[sp].[moe](A)[sp].[cEt](A)[sp].[moe](G)}$$$$V2.0
target mRNA inhibition (HepG2, 0.07 µM): 71% and 68%

RNA1{[moe](A)[sp].[cEt](G)[sp].[cEt](G)[sp].d(C)[sp].d(A)[sp].d(C)[sp].d(A)[sp].d(G)[sp].d(C)[sp].d(T)[sp].d(T)[sp].d(G)[sp].d(G)[sp].[cEt](A)[sp].[cEt](G)[sp].[moe](G)}$$$$V2.0
target mRNA inhibition (HepG2, 0.07 µM): 12% and 37%

RNA1{[moe](A)[sp].[cEt](G)[sp].[cEt](T)[sp].d(C)[sp].d(C)[sp].d(A)[sp].d(C)[sp].d(C)[sp].d(A)[sp].d(C)[sp].d(G)[sp].d(A)[sp].d(G)[sp].[cEt](T)[sp].[cEt](C)[sp].[moe](T)}$$$$V2.0
target mRNA inhibition (HepG2, 0.07 µM): 62% and 45%

RNA1{[moe](A)[sp].[cEt](G)[sp].d(A)[sp].d(G)[sp].d(G)[sp].d(T)[sp].d(G)[sp].d(A)[sp].d(A)[sp].d(G)[sp].d(C)[sp].d(G)[sp].[cEt](A)[sp].[moe](A)[sp].[cEt](G)[sp].[moe](T)}$$$$V2.0
target mRNA inhibition (HepG2, 0.07 µM): 63% and 76%

RNA1{[moe](A)[sp].[cEt](G)[sp].d(A)[sp].d(T)[sp].d(G)[sp].d(A)[sp].d(G)[sp].d(G)[sp].d(C)[sp].d(A)[sp].d(T)[sp].d(A)[sp].[cEt](G)[sp].[moe](C)[sp].[cEt](A)[sp].[moe](G)}$$$$V2.0
target mRNA inhibition (HepG2, 0.07 µM): 72% and 60%

RNA1{[moe](A)[sp].[cEt](G)[sp].d(G)[sp].d(A)[sp].d(G)[sp].d(T)[sp].d(T)[sp].d(C)[sp].d(C)[sp].d(G)[sp].d(C)[sp].d(A)[sp].[cEt](G)[sp].[moe](T)[sp].[cEt](A)[sp].[moe](T)}$$$$V2.0
target mRNA inhibition (HepG2, 0.0092593 µM): 12%
target mRNA inhibition (HepG2, 0.0277778 µM): 40%
target mRNA inhibition (HepG2, 0.07 µM): 74% and 87%
target mRNA inhibition (HepG2, 0.0833333 µM): 62%
target mRNA inhibition (HepG2, 0.25 µM): 82%

RNA1{[moe](A)[sp].[cEt](G)[sp].d(G)[sp].d(C)[sp].d(A)[sp].d(G)[sp].d(A)[sp].d(G)[sp].d(G)[sp].d(T)[sp].d(G)[sp].d(A)[sp].[cEt](A)[sp].[moe](A)[sp].[cEt](A)[sp].[moe](A)}$$$$V2.0
target mRNA inhibition (HepG2, 0.07 µM): 39% and 37%
